# Measured values published in US5446157A, “Boron difluoride compounds useful in photodynamic therapy and production of laser light” (priority 1993, dated 1995).
# Read-outs that look alike come from different tables or passages of the source.
# Assays:
# [1] = Laser characteristics of pyrromethene-BF2 complexes under flashlamp excitation (Table IV); details: for Life: DMA/MeOH
# [2] = cited from earlier work
# [3] = Ref [2], cited from earlier work; for λmax: 5 × 10^-6 M in ethanol
# [4] = Photostability in methanol under flashlamp excitation pulses
# [5] = Fluorescence (λf, quantum yield); format: physicochemical; details: FIG. 2, in ethanol
# Procedure: Instruments for spectroscopic measurements included: Perkin-Elmer 1600 FTIR, Varian Gernini 300 NMR, Hewlett-Packard 5985 (70 eV) GC-MS, Cary 17 (UV), and Perkin-Elmer LS-5B Luminescence spectrometer. A dye laser was constructed and operated in the non-flowing (static) mode and had no tuning capability. […] Laser energy outputs were measured with an accuracy of ±5% by a Scientech 365 power and energy meter.
# Light absorption, luminescence, and laser activity properties for the dyes 7 are described in Table VI. Each recorded UV absorption was restricted to the highest wave length. Fluorescence quantum yields of the dyes were determined for ethanol solutions with excitation at 450 and 460 nm by reference to acridine orange, .PHI.0.46, in ethanol; for the dye 7p the reference was R-6G, <P 0.90. Melting points were obtained from a Mel-Temp II device and were uncorrected. The solvent for ^1 H NMR spectra was chloroform-d with tetramethylsilane as an internal standard. Elemental analyses were obtained from Midwest Micro Lab, Indianapolis, Ind. and Galbraith Laboratories, Inc., Knoxville, Tenn. Solvents were removed by rotary evaporation under reduced pressure unless indicated otherwise. Column chromatography was performed on silica gel. Molecular weights were confirmed by EI-MS for the pyrrole 4j 193 and for laser dyes 7d 346, 7e 374, 7g 374, 7i 342, 7j 314 and 7x 360. IR absorption data satisfactorily supported structure assignments for the laser dyes 7.
# ^[b] 2 × 10^-4 M in ethanol except where noted otherwise.
# [6] = Photostability under irradiation with 250 watt sun lamp; format: physicochemical
# Procedure: In addition, experiments were conducted in order to determine the photostability of the product of Example I. A solution was prepared by mixing 0.1 g of the product with 50 ml of dichloromethane solvent. The solution was placed in a 100 ml round bottom flask and irradiated with light from a sun lamp (250 watts at a distance of approximately 8 inches from the flask). […] However, another solution was made by combining 0.1 g of product in 250 ml of CH3 OH and 10 ml of CH2 Cl2. Addition of the CH2 Cl2 was undertaken to obtain complete dissolution. The solution was placed in a […] and irradiated as described above. […] Thus, the use of different solvents will cause a variation in both the character and duration of fluorescence.
# In addition, a further test was conducted in order to determine the photostability of the product. Specifically, 2.0 mg of the product in a 100 ml round bottom flask was dissolved in 50 ml of H2 O. The solution was then irradiated by light from a 250 watt sun lamp placed approximately 8 inches from the flask. UV spectral data was recorded periodically as shown below in Table III.
# [7] = Solubility/fluorescence in various solvents (Tables I, II); format: physicochemical
# Procedure: In addition, tests were conducted on the product in order to determine its solubility/fluorescence in various solvents. One property of the compositions described herein involves a variable degree of solubility/fluorescence relative to the solvents with which they are combined. Data showing a variety of different solvents combined with the product of Example I is presented below in Table I:
# As in Example I, tests were conducted on the product in Example II in order to determine its fluorescence in various solvents. Data showing a variety of different solvents combined with the product of Example II is presented below in Table II: […]
# [8] = P-BF2 dyes dispersed in acrylic co-polymer (solid-state laser)
# Excerpt: Any laser dye of the present invention may be substituted for the dye in any of the examples of that incorporated patent. The matrix generally includes solid polymeric host laser rods prepared using bulk polymerization of acrylic acid ester comonomers.
# [9] = 2 × 10^-4 M in ethanol, Ref [2]
compound,measurement,setting,value
"CCC1=C2C(C)=CC(C)=[N+]2[B-](F)(F)n2c(C)cc(C)c21 [III, 4,4-difluoro-1,3,5,7-tetramethyl-8-ethyl-4-bora-3a,4a-diaza-s-indacene]",Eo after 1000 S at 25 J,"[1]; footnote to Life, after 1000 S at 25 J",~ 80 mJ
"c1ccc2cc3ccccc3cc2c1 [anthracene, reference compound]",λf,[2]; literature,400 nm
CC1=C(C)C(C)=[N+]2C1=C(C)c1c(C)c(C)c(C)n1[B-]2(F)F [Compound 7b],λmax,[3],518 nm
same,log ε,[3],4.67
same,λf,[2]; [9],546 nm
same,.PHI.f,[2]; Ref [2],0.70
"CCN=c1cc2oc3cc(NCC)c(C)cc3c(-c3ccccc3C(=O)OCC)c-2cc1C [Compound R-6G, reference compound]",fluorescence quantum yield of reference,[2]; reference standard,0.90
same,photostability in methanol,[4],1500 pulses
"CC1=CC(C)=[N+]2C1=C(C)c1c(C)cc(C)n1[B-]2(F)F [Compound 7a, 4,4-difluoro-1,3,5,7,8-pentamethyl-4-bora-3a,4a-diaza-s-indacene]",wavelength of incident light that produced the greatest fluorescence,[5],500-550 nm
same,visual change in fluorescence (photostability),"[6]; 0.1 g in 50 ml dichloromethane, sun lamp, 22 days",No visual change in fluorescence was observed
same,fluorescence after irradiation (photostability),"[6]; 0.1 g in 250 ml CH3 OH and 10 ml CH2 Cl2, sun lamp, 8 days",no fluorescence was observed
same,λmax,[3],493 nm
same,log ε,[3],4.90
same,λf,[2]; [9],519 nm
same,.PHI.f,[2]; Ref [2],0.99
same,"Color of Fluorescence, Room light",[7]; (CF3)2 CHOH,green
same,"Color of Fluorescence, UV",[7]; (CF3)2 CHOH,green
same,Color of Solution,[7]; (CF3)2 CHOH,yellow
same,Solubility,[7]; (CF3)2 CHOH,soluble
same,"Color of Fluorescence, Room light",[7]; CClF2 --CFCl2,green
same,"Color of Fluorescence, UV",[7]; CClF2 --CFCl2,green
same,Color of Solution,[7]; CClF2 --CFCl2,yellow
same,Color of Solution,[7]; CF3 CH2 OH,green
same,Solubility,[7]; CH2 Cl2,soluble
same,Solubility,[7]; H2 O,insoluble
same,Life,[1],~50 kJ/L
"CCC1=C(C)C2=C(C)c3c(C)c(CC)c(C)n3[B-](F)(F)[N+]2=C1C [Compound 7c, 1,3,5,7,8-pentamethyl-2,6-diethylpyrromethene-BF2 complex]",λmax,[3],517 nm
same,log ε,[3],4.81
same,λf,[2]; [9],546 nm
same,.PHI.f,[2]; Ref [2],0.83
same,solubility in the polymer matrix,[8],particularly soluble
"CCN=c1cc2oc3cc(NCC)c(C)cc3c(-c3ccccc3C(=O)OCC)c-2cc1C [Rhodamine 590, reference compound]",Life,[1],15 kJ/L
